From patent EP0377521B1, “High yield sodium hydrosulfite generation” (MORTON INTERNATIONAL, INC., priority 1989, dated 1990)

Test: NaBH₄ hydrolysis half-life vs. pH
Type: physicochemical
Details: for HALF-LIFE: hydrolysis
Procedure: The pH flow profile becomes significant when related to the hydrolysis rate of the NaBH₄. Referring to the Table set forth below, the half-life of NaBH₄ is 3000 times longer at a pH of 6.0 compared to a pH of 2.5. Therefore, if the BOROL solution is added to a process stream having a pH of 2.5, the extent of the hydrolysis of the NaBH₄ is greater than if the BOROL solution and NaOH are added first to said process stream having a pH of 6.2 and the pH of said process stream is increased to 13.0, where the rate of hydrolysis of NaBH₄ is very slow (42.6 days). TABLE
TEMPERATURE = 25°C (77°F) LOG₁₀ (t½ ) = pH - (0.034 T - 1.92) [formula] t = MINUTES T = °K

- HALF-LIFE (pH 2.5, 25°C (77°F)): 2e-06 min
- HALF-LIFE (pH 4.0, 25°C (77°F)): 6.17e-05 min
- HALF-LIFE (pH 5.0, 25°C (77°F)): 0.000617 min
- HALF-LIFE (pH 5.5, 25°C (77°F)): 0.002 min
- HALF-LIFE (pH 6.0, 25°C (77°F)): 0.00617 min
- HALF-LIFE (pH 6.5, 25°C (77°F)): 0.02 min
- HALF-LIFE (pH 7.0, 25°C (77°F)): 0.0617 min
- HALF-LIFE (pH 8.0, 25°C (77°F)): 0.613 min
- HALF-LIFE (pH 9.0, 25°C (77°F)): 6.1 min
- HALF-LIFE (pH 10.0, 25°C (77°F)): 61 min
- HALF-LIFE (pH 12.0, 25°C (77°F)): 6190 min
- HALF-LIFE (pH 13.0, 25°C (77°F)): 61300 min
- half-life at a pH of 6.0 compared to a pH of 2.5 (ratio of hydrolysis half-lives, pH 6.0 vs pH 2.5): 3000 times longer
SMILES: [BH4-].[Na+] [NaBH₄, sodium borohydride]
